Results published in patent publication US8030303B2, “Salt of morpholine compound” (Mitsubishi Tanabe Pharma Corporation, priority 2006, dated 2011).

What was measured:
[1] = Vapor sorption measurement (index of hygroscopicity), DVS-1 apparatus; format: physicochemical; conditions: relative humidity 70%, change calculated based on weight at relative humidity 0%, sample about 7 mg
Procedure: A vapor sorption measurement to provide an index of hygroscopicity was performed using a DVS-1 vapor sorption apparatus (manufactured by SMS) under the following conditions. A sample of about 7 mg was used and the relative humidity was increased by 10% within the range of from 0% to 90%, and finally to 95%. The weight change was recorded at each predetermined relative humidity, and the amount of change (%) was calculated based on the weight at relative humidity 0%. As the samples, compound 1-2 (hereinafter to be referred to as a free form) obtained according to the method described in WO 2006/028284, Example 2, compound 1-3 (hereinafter to be referred to as hydrobromide Form I crystal) obtained according to the method described in Example 1 and compound 2 (hereinafter to be referred to as hydrobromide Form II crystal) obtained according to the method described in Example 2 were used.

CCR3 = molecular target: T1, CCR3 (Homo sapiens, UniProt P51677); conditions: known from WO2006/028284, Table 1 of Experimental Example 1; cited from earlier work
T1 sequence (P51677 1-355): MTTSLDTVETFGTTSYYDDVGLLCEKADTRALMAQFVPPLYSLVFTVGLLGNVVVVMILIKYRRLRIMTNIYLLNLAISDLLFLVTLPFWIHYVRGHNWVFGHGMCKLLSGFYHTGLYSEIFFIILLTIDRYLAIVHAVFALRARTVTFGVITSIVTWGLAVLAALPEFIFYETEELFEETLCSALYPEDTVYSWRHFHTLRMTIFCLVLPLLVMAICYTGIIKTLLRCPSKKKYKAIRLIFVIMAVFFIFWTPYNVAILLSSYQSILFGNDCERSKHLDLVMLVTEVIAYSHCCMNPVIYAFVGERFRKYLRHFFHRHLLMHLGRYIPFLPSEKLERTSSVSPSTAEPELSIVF

weight change (gain) due to vapor sorption ([1]; hydrobromide) [%]	weight change (gain) due to vapor sorption [1] [%]	Structure (SMILES)	CCR3 antagonism / inhibition of CCR3-ligand binding (CCR3)
1.4		Br.O=C(O)Cc1csc(SCC(=O)NC[C@H]2CN(Cc3ccc(Cl)c(Cl)c3)CCO2)n1 [hydrobromide Form II crystal, (2S)-[4-(carboxymethyl)thiazol-2-ylthio]-N-{[4-(3,4-dichlorobenzyl)morpholin-2-yl]methyl}acetamide hydrobromide]	
	3.3	Br.O=C(O)Cc1csc(SCC(=O)NC[C@H]2CN(Cc3ccc(Cl)c(Cl)c3)CCO2)n1 [free form, (2S)-[4-(carboxymethyl)thiazol-2-ylthio]-N-{[4-(3,4-dichlorobenzyl)morpholin-2-yl]methyl}acetamide]	inhibit the bond between CCR3 and a ligand thereof, and act as an antagonist
0.1		Br.O=C(O)Cc1csc(SCC(=O)NC[C@H]2CN(Cc3ccc(Cl)c(Cl)c3)CCO2)n1 [hydrobromide Form I crystal, (2S)-[4-(carboxymethyl)thiazol-2-ylthio]-N-{[4-(3,4-dichlorobenzyl)morpholin-2-yl]methyl}acetamide hydrobromide]	
